Laboratory results published in ChEMBL document CHEMBL5143705, “Design, synthesis and structure-activity relationship of 4-(1,1,1,3,3,3-hexafluoro-2-hydroxyisoprop-2-yl)phenylsilane derivatives as liver X receptor agonists” (Bioorg Med Chem, 2022).

Columns and labels:
Type in all cases: cell-based
[1] = molecular target: T1, Oxysterols receptor LXR-alpha (Homo sapiens, UniProt Q13133); experiment: Agonist activity against human LXRalpha expressed in human HEK293T cells co-expressing CMX-GAL4N-hLXRalpha incubated for 24 hrs by reporter gene assay
T1 sequence (Q13133 whole entry): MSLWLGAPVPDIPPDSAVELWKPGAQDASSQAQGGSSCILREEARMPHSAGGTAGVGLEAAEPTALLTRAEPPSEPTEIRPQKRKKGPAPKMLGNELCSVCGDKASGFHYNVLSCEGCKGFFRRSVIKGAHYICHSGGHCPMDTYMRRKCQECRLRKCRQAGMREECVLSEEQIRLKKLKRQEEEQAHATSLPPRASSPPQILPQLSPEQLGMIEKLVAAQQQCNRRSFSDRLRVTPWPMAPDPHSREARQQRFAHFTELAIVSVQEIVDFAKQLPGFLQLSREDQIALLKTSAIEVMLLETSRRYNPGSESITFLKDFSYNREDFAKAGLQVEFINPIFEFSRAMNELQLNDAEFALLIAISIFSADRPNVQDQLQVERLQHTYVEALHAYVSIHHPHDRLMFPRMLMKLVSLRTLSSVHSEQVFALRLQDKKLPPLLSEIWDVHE

[2] = molecular target: T2, Oxysterols receptor LXR-beta (Homo sapiens, UniProt P55055); experiment: Agonist activity against human LXRbeta expressed in human HEK293T cells co-expressing CMX-GAL4N-hLXRbeta incubated for 24 hrs by reporter gene assay
T2 sequence (P55055 whole entry): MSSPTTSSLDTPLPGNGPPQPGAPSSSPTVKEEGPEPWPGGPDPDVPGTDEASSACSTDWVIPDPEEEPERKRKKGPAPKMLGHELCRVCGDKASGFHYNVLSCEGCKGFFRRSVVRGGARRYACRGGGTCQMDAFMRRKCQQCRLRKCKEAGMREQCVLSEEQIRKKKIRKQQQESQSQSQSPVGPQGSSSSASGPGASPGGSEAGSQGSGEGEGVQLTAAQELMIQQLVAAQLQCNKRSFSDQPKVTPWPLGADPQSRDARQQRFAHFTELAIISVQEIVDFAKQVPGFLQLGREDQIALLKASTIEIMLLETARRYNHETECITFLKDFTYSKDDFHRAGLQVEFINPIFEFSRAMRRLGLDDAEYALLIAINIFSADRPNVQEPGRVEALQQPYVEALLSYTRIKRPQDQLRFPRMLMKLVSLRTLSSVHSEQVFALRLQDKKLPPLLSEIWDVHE

[3] = Toxicity in human HEK293 cells assessed as reduction in cell viability at 10 uM; settings: hek293, 10 µM
[4] = molecular target: T3, Oxysterols receptor LXR-beta (Homo sapiens) (UniProt P55055); experiment: Partial agonist activity against human LXRbeta in human HEK293T cells incubated for 24 hrs by reporter gene assay T0901317
T3 sequence (whole entry): T2 sequence (P55055 whole entry)

[5] = molecular target: T4, Oxysterols receptor LXR-alpha (Homo sapiens) (UniProt Q13133); experiment: Partial agonist activity against human LXRalpha in human HEK293T cells incubated for 24 hrs by reporter gene assay relative to T0901317
T4 sequence (whole entry): T1 sequence (Q13133 whole entry)

| SMILES | EC50 [1] [nM] | EC50 [2] [nM] | Activity [3] | Activity [4] [%] | Activity [5] [%] |
| --- | --- | --- | --- | --- | --- |
| CCCC[Si](C)(C)c1ccc(C(O)(C(F)(F)F)C(F)(F)F)cc1 | 2350 | 1700 | Non-Toxic | – | – |
| C[Si](C)(Cc1ccccc1)c1ccc(C(O)(C(F)(F)F)C(F)(F)F)cc1 | 940 | 720 | Non-Toxic | – | – |
| CC[Si](CC)(CC)c1ccc(C(O)(C(F)(F)F)C(F)(F)F)cc1 | 620 | 530 | Non-Toxic | – | – |
| C=CC[Si](C)(C)c1ccc(C(O)(C(F)(F)F)C(F)(F)F)cc1 | 500 | 450 | Non-Toxic | – | – |
| C[Si](C)(c1ccc(C(O)(C(F)(F)F)C(F)(F)F)cc1)C1CCCCC1 | 1430 | 740 | Non-Toxic | – | – |
| C[Si](C)(C)c1ccc(C(O)(C(F)(F)F)C(F)(F)F)cc1 | 3120 | 1410 | Non-Toxic | – | – |
| C[Si](C)(CCO)c1ccc(C(O)(C(F)(F)F)C(F)(F)F)cc1 | 1460 | 1730 | Non-Toxic | – | – |
| C[Si](C)(C)[Si](C)(C)c1ccc(C(O)(C(F)(F)F)C(F)(F)F)cc1 | 580 | 510 | Non-Toxic | – | – |
| CCC[Si](CCC)(CCC)c1ccc(C(O)(C(F)(F)F)C(F)(F)F)cc1 | 430 | 590 | Non-Toxic | – | – |
| C[Si](O)(c1ccccc1)c1ccc(C(O)(C(F)(F)F)C(F)(F)F)cc1 (stereo not given) | 8500 | 5030 | Non-Toxic | – | – |
| O=S(=O)(c1ccccc1)N(CC(F)(F)F)c1ccc(C(O)(C(F)(F)F)C(F)(F)F)cc1 [T091317] | – | – | Non-Toxic | – | – |
| CN(c1ccc(C(O)(C(F)(F)F)C(F)(F)F)cc1)S(=O)(=O)c1ccccc1 | – | – | Non-Toxic | – | – |
| C[Si](C)(c1ccccc1)c1ccc(C(O)(C(F)(F)F)C(F)(F)F)cc1 | 2150 | 740 | Non-Toxic | – | – |
| C=C[Si](C)(C)c1ccc(C(O)(C(F)(F)F)C(F)(F)F)cc1 | 2060 | 1800 | Non-Toxic | – | – |
| CC(O)[Si](C)(C)c1ccc(C(O)(C(F)(F)F)C(F)(F)F)cc1 (stereo not given) | 4450 | 3340 | Non-Toxic | – | – |
| CC(C)(C)[Si](C)(C)c1ccc(C(O)(C(F)(F)F)C(F)(F)F)cc1 | 1130 | 650 | Non-Toxic | – | – |
| OC(c1ccc([Si](Cc2ccccc2)(Cc2ccccc2)Cc2ccccc2)cc1)(C(F)(F)F)C(F)(F)F | 4980 | 1980 | Non-Toxic | 27 | 19 |
| CC[Si](C)(CC)c1ccc(C(O)(C(F)(F)F)C(F)(F)F)cc1 | 590 | 690 | Non-Toxic | – | – |
| C[Si](C)(CCCO)c1ccc(C(O)(C(F)(F)F)C(F)(F)F)cc1 | 4450 | 4030 | Non-Toxic | – | – |
